From US20120016019A1, “PHARMACEUTICAL COMPOSITION FOR TREATING OR PREVENTING CANCER” (priority 2010, published 2012)
Values joined by “and” are separate entries in the source; they are usually repeats but may differ in a detail not shown here. Equal values may be shown once. Read-outs that look alike come from different tables or passages of the source.

Tests used:
[1] = in vitro; format: cell-based; conditions: human
[2] = tested on: HT 1299; conditions: for The cytotoxicity / The viability: 220 nM; for The absorbance / The absorbance, Mean value / The absorbance, group - Blank: HT 1299
Experimental: (§1) Cancer cell lines HCC 1419, MCF-7, MDA-MB-468, SKBR3, PC3, HT1299, Saos-2, C-6, AsPc, MDA-MB-231, RKO, HeLa and TT, and normal cell lines HME 50 HT, BJ and CCD-1074sk were tested for changes in metabolism (XTT assay) and cell death (cell counts).
(§2) Cells were plated into 48-well Corning CellBind™ plates at densities of 20,000 cells for normal cells and 10,000˜20,000 cells for cancer cells. 24 to 48 h after plating, cells were treated with the composition according to the invention at concentrations of 4.5e-2M. The first time point treated with the composition of the invention is 0 h. At 3 days after the first treatment with the composition of the invention, medium was changed and the composition of the invention at the same concentrations were added to the cultured cells.
(§3) The XTT assay is an accepted analysis technique for viability and cytotoxicity of anticancer drugs or other pharmaceutical compositions. Cells were seeded in a 96-well tissue culture plate at a density of 10,000 cells for normal cells and 5,000 cells for cancer cells. After incubation period, the formazan dye formed was quantitated using an ELISA reader. The optimal wavelength used in experiments was 500 nm, and it was measured at 0 h, 12 h, 24 h, 48 h, 4 d and 7 d, respectively. The obtained values were generated using the software SoftMax Pro 4.8.
(§4) The cell viability was calculated according to the manufacturer's instructions as follows (the term “blank” means XTT in medium only):
(§5) Cellular cytotoxicity was calculated according to the manufacturer's instructions as follows: […]

[3] = tested on: BJ; conditions: for The viability / The absorbance, group - Blank / The absorbance, Mean value / The absorbance: BJ; for The absorbance, group - Blank: mean minus blank; for The absorbance: single value; for The cytotoxicity: human, 220 nM
Experimental: as §1, §2, §3, §4, §5

[4] = tested on: SKBR3; conditions: human, 220 nM
Experimental: as §2
(§6) Cells were harvested using Trypsin-EDTA at the designated time points. When total cells for each well were counted with a Beckman-Coulter Z1 Particle Characterization Unit, the vertical axis represents 1/20 of cell number in the Figures attached to the specification, while when counted with a Beckman-Coulter Vi-Cell, the vertical axis represents cell number in the Figures. Two 48-well plates were used per cell line, and they were measured at 0 h, 12 h, 24 h, 48 h, 4 d and 7 d, respectively.
(§7) The viability was determined by using the trypan blue staining in the well of cell counting.

[5] = tested on: HeLa; conditions: human, 0 h, 220 nM
Experimental: as §2, §6, §7

[6] = tested on: MDA-MB-231; conditions: human, 0 h, 220 nM
Experimental: as §2, §6, §7

[7] = tested on: RKO; conditions: human, 220 nM
Experimental: as §2, §6, §7

[8] = viability (%) calculated from the cell counts
[9] = XTT 500 nm, 2nd week (recovery), 0 h
[10] = XTT 500 nm, 2nd week (recovery), 24 h
[11] = XTT 500 nm, 2nd week (recovery), 48 h
[12] = XTT 500 nm, 2nd week (recovery), 4 d

SMILES: CC(=O)O[C@H]1C(=O)[C@@]2(C)[C@H]([C@H](OC(=O)c3ccccc3)[C@]3(O)C[C@H](OC(=O)[C@H](O)[C@@H](NC(=O)c4ccccc4)c4ccccc4)C(C)=C1C3(C)C)[C@]1(OC(C)=O)CO[C@@H]1C[C@@H]2O [Taxol]
- viability at 0 h, 2.2e-07 M [1, 8]: 70%
- viability at 24 h, 2.2e-07 M [1, 8]: 71%
- viability at 4 d, 2.2e-07 M [1, 8]: 43%
- viability at 0 h, 2.2e-07 M ([1]; viability (%), Mean value): 73%
- viability at 24 h, 2.2e-07 M ([1]; viability (%), Mean value): 80%
- viability at 4 d, 2.2e-07 M ([1]; viability (%), Mean value): 38%
- The cytotoxicity ([2]; 0 h): 0.0206
- The viability ([2]; 0 h): 0.9794
- The cytotoxicity ([2]; 12 h): 0.0709
- The viability ([2]; 12 h): 0.9291
- The cytotoxicity ([2]; 24 h): 0.0409
- The viability ([2]; 24 h): 0.9591
- The cytotoxicity ([2]; 48 h): 0.0368
- The viability ([2]; 48 h): 0.9632
- The viability ([2]; 4 d): 0.8406
- The viability ([2]; 7 d): 0.3389
- The absorbance ([2]; 1st week (LC50), 0 h): 2.7643 and 2.716 and 2.6703
- The absorbance, Mean value ([2]; 1st week (LC50), 0 h): 2.7169
- The absorbance, group - Blank ([2]; 1st week (LC50), 0 h): 2.5063
- The absorbance ([2]; 1st week (LC50), 12 h): 2.8939 and 2.8933 and 2.8787
- The absorbance, Mean value ([2]; 1st week (LC50), 12 h): 2.8886
- The absorbance, group - Blank ([2]; 1st week (LC50), 12 h): 2.6781
- The absorbance ([2]; 1st week (LC50), 24 h): 2.7759 and 2.8539 and 2.8128
- The absorbance, Mean value ([2]; 1st week (LC50), 24 h): 2.8142
- The absorbance, group - Blank ([2]; 1st week (LC50), 24 h): 2.6036
- The absorbance ([2]; 1st week (LC50), 48 h): 2.5408 and 2.6225 and 2.6333
- The absorbance, Mean value ([2]; 1st week (LC50), 48 h): 2.5989
- The absorbance, group - Blank ([2]; 1st week (LC50), 48 h): 2.3883
- The absorbance ([2]; 1st week (LC50), 4 d): 2.817 and 2.6791 and 2.5786
- The absorbance, Mean value ([2]; 1st week (LC50), 4 d): 2.6916
- The absorbance, group - Blank ([2]; 1st week (LC50), 4 d): 2.4810
- The absorbance ([2]; 1st week (LC50), 7 d): 1.504
- The absorbance, group - Blank ([2]; 1st week (LC50), 7 d): 1.0771
- The absorbance, Mean value [2, 9]: 2.0676
- The absorbance, group - Blank [2, 9]: 1.7954
- The absorbance ([2]; XTT 500 nm, 2nd week (recovery), 0 h, single wells): 1.9675 and 1.8392 and 2.3962
- The absorbance, Mean value [2, 10]: 2.6177
- The absorbance, group - Blank [2, 10]: 2.3455
- The absorbance ([2]; XTT 500 nm, 2nd week (recovery), 24 h, single wells): 2.6918 and 2.5521 and 2.6093
- The absorbance, Mean value [2, 11]: 2.4695
- The absorbance, group - Blank [2, 11]: 2.1973
- The absorbance, Mean value [2, 12]: 2.3404
- The absorbance, group - Blank [2, 12]: 2.0681
- The absorbance ([2]; XTT 500 nm, 2nd week (recovery), 4 d, single wells): 2.6902 and 1.9256 and 2.4054
- The cytotoxicity ([2]; human, 0 h): 0.2984
- The viability ([2]; human, 0 h): 0.7016
- The cytotoxicity ([2]; human, 24 h): 0.1360
- The viability ([2]; human, 24 h): 0.8640
- The cytotoxicity ([2]; human, 48 h): 0.1139
- The viability ([2]; human, 48 h): 0.8861
- The viability ([2]; human, 4 d): 0.7007
- The cytotoxicity ([2]; human, 7 d): 0.6611
- The viability ([3]; 1st week (LC50), 0 h): 0.6817
- The absorbance, group - Blank ([3]; 1st week (LC50), 0 h): 0.9194
- The absorbance, Mean value ([3]; 1st week (LC50), 0 h): 1.2407
- The absorbance ([3]; 1st week (LC50), 0 h): 1.2557 and 1.2397 and 1.2268
- The viability ([3]; 1st week (LC50), 12 h): 0.3531
- The absorbance, group - Blank ([3]; 1st week (LC50), 12 h): 0.1792
- The absorbance, Mean value ([3]; 1st week (LC50), 12 h): 0.5006
- The absorbance ([3]; 1st week (LC50), 12 h): 0.504 and 0.4951 and 0.5027
- The viability ([3]; 1st week (LC50), 24 h): 0.1484
- The absorbance, group - Blank ([3]; 1st week (LC50), 24 h): 0.1674
- The absorbance, Mean value ([3]; 1st week (LC50), 24 h): 0.4887
- The absorbance ([3]; 1st week (LC50), 24 h): 0.492 and 0.4863 and 0.4879
- The viability ([3]; 1st week (LC50), 48 h): 0.6457
- The absorbance, group - Blank ([3]; 1st week (LC50), 48 h): 1.3032
- The absorbance, Mean value ([3]; 1st week (LC50), 48 h): 1.6245
- The absorbance ([3]; 1st week (LC50), 48 h): 1.6877 and 1.5017 and 1.6842
- The viability ([3]; 1st week (LC50), 4 d): 0.5117
- The absorbance, group - Blank ([3]; 1st week (LC50), 4 d): 1.1564
- The absorbance, Mean value ([3]; 1st week (LC50), 4 d): 1.4777
- The absorbance ([3]; 1st week (LC50), 4 d): 1.4687 and 1.4879 and 1.4766
- The viability ([3]; 1st week (LC50), 7 d): 0.4809
- The absorbance, group - Blank ([3]; 1st week (LC50), 7 d): 1.0576
- The absorbance, Mean value ([3]; 1st week (LC50), 7 d): 1.3790
- The absorbance ([3]; 1st week (LC50), 7 d): 1.3256 and 1.3677 and 1.4436
- The viability ([3]; 2nd week (recovery), 0 h): 0.8858
- The absorbance, group - Blank ([3]; 2nd week (recovery), 0 h): 0.8852
- The absorbance, Mean value ([3]; 2nd week (recovery), 0 h): 1.2065
- The absorbance ([3]; 2nd week (recovery), 0 h): 1.1468 and 1.2843 and 1.1885
- The viability ([3]; 2nd week (recovery), 24 h): 2.1460
- The absorbance, group - Blank ([3]; 2nd week (recovery), 24 h): 1.0893
- The absorbance, Mean value ([3]; 2nd week (recovery), 24 h): 1.4107
- The absorbance ([3]; 2nd week (recovery), 24 h): 1.3211 and 1.5144 and 1.3966
- The viability ([3]; 2nd week (recovery), 48 h): 0.1254
- The absorbance, group - Blank ([3]; 2nd week (recovery), 48 h): 0.1415
- The absorbance, Mean value ([3]; 2nd week (recovery), 48 h): 0.4629
- The absorbance ([3]; 2nd week (recovery), 48 h): 0.451 and 0.4672 and 0.4704
- The viability ([3]; 2nd week (recovery), 4 d): 0.7693
- The absorbance, group - Blank ([3]; 2nd week (recovery), 4 d): 1.5524
- The absorbance, Mean value ([3]; 2nd week (recovery), 4 d): 1.8738
- The absorbance ([3]; 2nd week (recovery), 4 d): 1.8912 and 1.9201 and 1.8101
- The cytotoxicity ([3]; 12 h): 0.6469
- The cytotoxicity ([3]; 7 d): 0.5191
- viability (%), Mean value ([4]; 24 h): 70%
- viability (%) calculated from the cell counts ([4]; 48 h): 0%
- viability (%), Mean value ([4]; 48 h): 17%
- viability (%) calculated from the cell counts ([4]; 4 d): 0%
- viability (%), Mean value ([4]; 4 d): 33%
- viability (%), Mean value ([4]; 7 d): 50%
- viability (%), Mean value [5]: 75.4%
- viability (%), Mean value [6]: 44.2%
- viability (%), Mean value ([7]; 0 h): 40%
- viability (%), Mean value ([7]; 24 h): 43%
